Earlier results on 1 molecule are cited in patent US20240033221A1, “LONG-ACTING BUPIVACAINE MICROSPHERE FORMULATIONS” (Scienture, Inc., priority 2020, published 2024).

Structures are written as SMILES. Counter-ions that a name gives are not always drawn.

For the series the following is noted: dental injections.

On to `CCCCN1CCCCC1C(=O)Nc1c(C)cccc1C` (centres unmarked) [bupivacaine HCl, bupivacaine hydrochloride], for which the duration of action was 2 to 8 h and the onset of action is 2 to 10 min.
